Test results from patent publication US4749568A, “Rubradirin treatment of methicillin-resistant staph” (The Upjohn Company, priority 1987, dated 1988).

Tests used:
[1] = tested on: S. aureus UC6685; test: ED50 determination, mice infected intraperitoneally with S. aureus UC6685; format: in vivo, Staphylococcus aureus (infected mice, Charles Fisher #1); conditions: dosed 1 and 5 hr post infection, 10080 min
Protocol: (§1) Effective Dose50 (ED50) determinations were performed using standard methods. All mice (Charles Fisher #1, 20 g) were given sufficient S. aureus intraperitoneally (IP) to kill 90 to 100% of untreated mice. At least five dosage levels of antibiotics were employed per each ED50 determination. The antibiotic was administered subcutaneous (SQ) or orally at 1 and 5 hr post infection. The mice were monitored for one week with deaths being noted daily. The ED50 values were calculated by probit analysis.
(§2) ^1 The dose of drug in mg/kg of body weight required to protect 50% o
(§3) the infected animals. Drug was dosed one and five hours post infection
(§4) ^2 Paldimycin was dosed SQ.

[2] = tested on: S. aureus UC9213; test: ED50 determination, mice infected intraperitoneally with S. aureus UC9213; format: in vivo, Staphylococcus aureus (infected mice, Charles Fisher #1); conditions: dosed 1 and 5 hr post infection, 10080 min
Protocol: as §1, §2, §3, §4

[3] = tested on: S. aureus UC9271; test: ED50 determination, mice infected intraperitoneally with S. aureus UC9271; format: in vivo, Staphylococcus aureus (infected mice, Charles Fisher #1); conditions: dosed 1 and 5 hr post infection, 10080 min
Protocol: as §1, §2, §3, §4

[4] = tested on: Staphylococcus aureus; test: Susceptibility test of patient isolate; format: cell-based; conditions: isolate from patient, Examples 1 to 3
Protocol: It is known to those skilled in the art how to determine which Staphylococcus (aureus or epidermidis) infections are rubradirin-sensitiveand methicillin-resistant by use of standarad susceptibility tests. See, "Dilution Susceptibility Test: agar and macro-broth dilution procedures; Manual of Clinical Microbiology, Third Edition, American Society of Microbiology, 1980, Washington, D.C., p 453-458".
(§5) A 70 kg person has a fever of 103° F. and has symptoms of bacterial pneumonia infection. Standard laboratory tests isolate an organism which is identified as Staphylococcus aureus. […] The patient is given 1000 mg of rubradirin three times daily by mouth. The temperature over a short period goes to 98.6° F. and the clinical symptoms of pneumonia disappear.
(§6) A 60 kg patient has an infection on their arm following a severe burn. They have a 101° F. fever. Standard laboratory tests isolate an organism which is identified as Staphylococcus aureus. […] The patient is treated with a cream containing 3% rubradirin.
A 85 kg person has baceterial endocarditis with a fever of 104° F. Standard laboratory tests isolate an organism which is identified as Staphylococcus aureus. […] The patient is treated with an IV infusion of rubradirin (4.5 mg/ml) at a rate of 60 ml/hr for a dose of 76 mg/kg/day.

[5] = tested on: Staphylococcus aureus; test: Treatment of patient with bacterial pneumonia (Example 1); format: in vivo, Staphylococcus aureus (human patient); conditions: 70 kg male, 1000 mg three times daily by mouth
Protocol: as §5

[6] = tested on: Staphylococcus aureus; test: Topical treatment of patient with infected burn (Example 2); format: in vivo, Staphylococcus aureus (human patient); conditions: 60 kg female, cream containing 3% rubradirin
Protocol: as §6

[7] = tested on: two clinical strains of S. aureus; conditions: cited from earlier work
[8] = tested on: Multidrug-resistant staphylococci; conditions: Orthopedic Clinics of North America 15, 417 (1984); cited from earlier work

For Paldimycin, the ED50 ([1]; SQ) was 8.1 mg/kg, the ED50 ([2]; SQ) was 12.7 mg/kg and the ED50 ([3]; SQ) was 20.5 mg/kg.
`COc1ccc2c(O)c(NC(=O)c3cc(O[C@@H]4C[C@](C)([N+](=O)[O-])[C@@H](OC)[C@@H](C)O4)c(O)c(C(=O)O[C@H]4[C@H](O)C(=O)[C@]5(C)CNC6=C(O5)C(=O)c5c(cc(C)c(O)c5C(=O)/C(C)=C\[C@@H]4C)C6=O)n3)c(=O)oc2c1` [Rubradirin, rubradirin] gave an ED50 ([1]; SQ) of 4.7 mg/kg, an ED50 ([1]; oral) of 11.1 mg/kg and an ED50 ([2]; SQ) of 4.7 mg/kg. The ED50 ([2]; oral) was 1.6 mg/kg, the ED50 ([3]; SQ) was 23.1 mg/kg and the ED50 ([3]; oral) was 141 mg/kg. For the same compound, the “Susceptibility test results of the isolate” value [4] was “susceptible”, the “clinical symptoms of pneumonia” value [5] was “disappear” and the temperature ([5]; fever of 103° F. before) was 98.6 ° F. The inflammation [6] was “less inflammation”, the “wound infection and healing” value [6] was “the wound is not infected and appears to be healing much better” and the temperature ([6]; after 3 days, 101° F. fever before) was “goes to normal”. For the same compound, the in vitro activity ([7]; two clinical strains resistant to several antibiotics) was “had in vitro activity”.
In the case of `CN[C@H](CC(C)C)C(=O)N[C@H]1C(=O)N[C@@H](CC(N)=O)C(=O)N[C@H]2C(=O)N[C@H]3C(=O)N[C@H](C(=O)N[C@H](C(=O)O)c4cc(O)cc(O)c4-c4cc3ccc4O)[C@H](O)c3ccc(c(Cl)c3)Oc3cc2cc(c3O[C@@H]2O[C@H](CO)[C@@H](O)[C@H](O)[C@H]2O[C@H]2C[C@](C)(N)[C@H](O)[C@H](C)O2)Oc2ccc(cc2Cl)[C@H]1O` [vancomycin], the susceptibility [8] is given as “retained their susceptibility”.
In the case of `COc1cccc(OC)c1C(=O)N[C@@H]1C(=O)N2[C@@H]1SC(C)(C)[C@@H]2C(=O)O` [methicillin], the “Susceptibility test results of the isolate” value [4] is listed as “resistant” and the “methicillin sensitivity of the strains” value ([7]; strains originally tested by Bhuyan et al, later study) is listed as “sensitive”.
